Reference: patent publication US20040171543A1, “Matrix metalloproteinase inhibitors and methods for identification of lead compounds” (priority 2002, published 2004)
Structures can show the parent of a compound that is named as a salt. Where two headings read alike, the source gives them in different places.

Tests used:
MMP-2 [1] = molecular target: T1, MMP-2 (Homo sapiens, UniProt P08253); conditions: Curtin et al.; cited from earlier work
T1 sequence (P08253 110-660): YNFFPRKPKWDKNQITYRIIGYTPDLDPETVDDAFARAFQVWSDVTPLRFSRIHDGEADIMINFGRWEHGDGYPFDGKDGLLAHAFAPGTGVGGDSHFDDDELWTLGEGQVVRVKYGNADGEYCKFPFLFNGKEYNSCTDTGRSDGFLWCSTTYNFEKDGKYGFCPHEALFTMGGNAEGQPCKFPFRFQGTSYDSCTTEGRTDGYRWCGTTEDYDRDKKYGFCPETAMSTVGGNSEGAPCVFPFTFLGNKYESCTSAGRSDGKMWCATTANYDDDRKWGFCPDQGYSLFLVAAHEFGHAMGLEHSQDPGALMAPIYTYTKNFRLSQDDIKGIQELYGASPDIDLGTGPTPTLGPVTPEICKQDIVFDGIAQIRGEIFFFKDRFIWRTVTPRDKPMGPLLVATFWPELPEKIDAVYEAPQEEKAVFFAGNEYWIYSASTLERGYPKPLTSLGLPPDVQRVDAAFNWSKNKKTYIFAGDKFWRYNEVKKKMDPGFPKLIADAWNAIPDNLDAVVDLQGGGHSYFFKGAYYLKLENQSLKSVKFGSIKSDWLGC

MMP-9 [2] = molecular target: T2, MMP-9 (Homo sapiens, UniProt P14780); assay: TPL (thiopeptolide) assay, MMP-9; type: biochemical; conditions: read-out: IC50 MMP-9
Source text: (§1) The assays that can be used to evaluate the biological activity of various compounds for inhibiting MMPs are well-known and routinely used by those skilled in the art. They measure the amount by which a test compound reduces the hydrolysis of a thiopeptolide substrate caused by a matrix metalloproteinase enzyme. Such assays are described in detail by Ye et al., in Biochemistry, 1992;31(45): 11231-11235, which is incorporated herein by reference.
(§2) Thiopeptolide substrates show virtually no decomposition or hydrolysis in the absence of a matrix metalloproteinase enzyme. A typical thiopeptolide substrate commonly utilized for assays is Ac-Pro-Leu-Gly-thioester-Leu-Leu-Gly-OEt. A 100 μL assay mixture will contain 50 mM of 2-morpholinoethane sulfonic acid monohydrate (MES, pH 6.0) 10 mM CaCl2, 100 μM thiopeptolide substrate, and 1 mM 5,5′-dithio-bis-(2-nitro-benzoic acid) (DTNB). The thiopeptolide substrate concentration is varied from 10 to 800 μM to obtain Km and Kcat values. The change in absorbance at […] is monitored on a Thermo Max microplate reader (Molecular Devices, Menlo Park, Calif.) at room temperature (22° C.). The calculation of the amount of hydrolysis of the thiopeptolide substrate is based on E412=13600 m^−1 cm^−1 for the DTNB-derived product 3-carboxy-4-nitrothiophenoxide. Assays are carried out with and without matrix metalloproteinase inhibitor compounds, and the amount of hydrolysis is compared for a determination of inhibitory activity of the test compounds.

MMP-1 [3] = molecular target: T3, MMP-1 (Homo sapiens, UniProt P03956); assay: TPL (thiopeptolide) assay, MMP-1; type: biochemical; conditions: read-out: IC50 MMP-1
T3 sequence (P03956 100-469): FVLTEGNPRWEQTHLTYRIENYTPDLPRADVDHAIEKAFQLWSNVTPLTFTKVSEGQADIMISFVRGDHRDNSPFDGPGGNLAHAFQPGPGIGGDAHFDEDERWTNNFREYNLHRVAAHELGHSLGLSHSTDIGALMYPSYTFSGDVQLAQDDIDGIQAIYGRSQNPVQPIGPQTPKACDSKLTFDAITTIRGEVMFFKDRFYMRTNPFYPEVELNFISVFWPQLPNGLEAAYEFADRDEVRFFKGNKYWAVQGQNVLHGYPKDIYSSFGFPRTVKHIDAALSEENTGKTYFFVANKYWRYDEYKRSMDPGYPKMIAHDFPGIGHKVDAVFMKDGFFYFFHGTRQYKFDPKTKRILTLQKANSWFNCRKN
Source text: as §1, §2

MMP-14 = MMP-14 (Homo sapiens, UniProt P50281); assay: TPL (thiopeptolide) assay, MMP-14; type: biochemical; conditions: read-out: IC50 MMP-14
Source text: as §1, §2

MMP-2 [4] = molecular target: T1, MMP-2; assay: TPL (thiopeptolide) assay, MMP-2; type: biochemical; conditions: read-out: IC50 MMP-2
Source text: as §1, §2

MMP-3 = MMP-3 (Homo sapiens, UniProt P08254); assay: TPL (thiopeptolide) assay, MMP-3; type: biochemical; conditions: read-out: IC50 MMP-3
Source text: as §1, §2

MMP-12 = MMP-12 (Homo sapiens, UniProt P39900); assay: TPL (thiopeptolide) assay, MMP-12 (without and with AH); type: biochemical
Source text: as §1, §2
Although ligand size is not critical, a bulky ligand will block more binding sites of the MMP than a smaller ligand, and may thus prevent potential inhibitors that bind close to, but not at, the functional metal cation from being identified. Suitable ligands are therefore low molecular weight molecules, e.g. acetohydroxamic acid (CH3CONHOH) whose use is preferred.

MMP-13 [5] = molecular target: T4, MMP-13 (Homo sapiens, UniProt P45452); conditions: Chen et al.; cited from earlier work
MMP-1 [6] = molecular target: T3, MMP-1; conditions: Chen et al.; cited from earlier work
TACE = TACE (Homo sapiens, UniProt P78536); conditions: Chen et al.; cited from earlier work
MMP-9 [7] = molecular target: T2, MMP-9; conditions: Chen et al.; cited from earlier work
MMP-8 = MMP-8 (Homo sapiens, UniProt P22894); assay: TPL (thiopeptolide) assay, MMP-8; type: biochemical
Source text: as §1
as §2, with “Assays are carried out with and without matrix metalloproteinase inhibitor compounds, and the amount of hydrolysis is compared for a determination of inhibitory activity of the test compounds.” left out

MMP-13 [8] = molecular target: T4, MMP-13; assay: TPL (thiopeptolide) assay, MMP-13 (without and with AH); type: biochemical
Procedure: Thiopeptolide substrates show virtually no decomposition or hydrolysis in the absence of a matrix metalloproteinase enzyme. A typical thiopeptolide substrate commonly utilized for assays is Ac-Pro-Leu-Gly-thioester-Leu-Leu-Gly-OEt. A 100 μL assay mixture will contain 50 mM of 2-morpholinoethane sulfonic acid monohydrate (MES, pH 6.0) 10 mM CaCl2, 100 μM thiopeptolide substrate, and 1 mM 5,5′-dithio-bis-(2-nitro-benzoic acid) (DTNB). […] The change in absorbance at 405 mm is monitored on a Thermo Max microplate reader (Molecular Devices, Menlo Park, Calif.) at room temperature (22° C.). […] Assays are carried out with and without matrix metalloproteinase inhibitor compounds, and the amount of hydrolysis is compared for a determination of inhibitory activity of the test compounds.

[9] = molecular target: T5, MMP-13 catalytic domain (MMP-13CD) (Homo sapiens, UniProt P45452); assay: Fluorigenic peptide-1 substrate based assay, MMP-13CD, with/without AcNHOH; type: biochemical; conditions: for IC50: FP1 substrate; for IC50 Ratio (±): IC50 with AcNHOH divided by IC50 without
T5 construct: The catalytic domain of the MMP-13 enzyme, namely matrix metalloproteinase-13 catalytic domain (“MMP-13CD”)
Procedure: The catalytic domain of the MMP-13 enzyme, namely matrix metalloproteinase-13 catalytic domain (“MMP-13CD”), rather than the corresponding full-length enzyme, MMP-13 was used in such assay.
50 mM HEPES buffer (pH 7.0)
2% DMSO (with or without inhibitor test compound)
1. Dispensed 2 μL inhibitor test sample (in 100% DMSO) into well.
2. Added 88 μL assay mixture and mixed well, avoiding bubbles.
3. Initiated reactions with 10 μL of 5 nM MMP-13CD; mixed well, avoiding bubbles.
4. Immediately measured the kinetics of the reactions at room temperature.
Alternatively, an endpoint read can also be used to determine reaction velocity provided the initial fluorescence of the solution, as recorded before addition of enzyme, is subtracted from the final fluorescence of the reaction mixture.

[10] = TPL assay, without AH, read-out: IC50 MMP-12
[11] = in presence of acetohydroxamic acid (+AH), read-out: IC50 MMP12 (+AH)
[12] = TPL assay, without AH, read-out: IC50 MMP-13

MMP-12, sequence (P39900 106-470): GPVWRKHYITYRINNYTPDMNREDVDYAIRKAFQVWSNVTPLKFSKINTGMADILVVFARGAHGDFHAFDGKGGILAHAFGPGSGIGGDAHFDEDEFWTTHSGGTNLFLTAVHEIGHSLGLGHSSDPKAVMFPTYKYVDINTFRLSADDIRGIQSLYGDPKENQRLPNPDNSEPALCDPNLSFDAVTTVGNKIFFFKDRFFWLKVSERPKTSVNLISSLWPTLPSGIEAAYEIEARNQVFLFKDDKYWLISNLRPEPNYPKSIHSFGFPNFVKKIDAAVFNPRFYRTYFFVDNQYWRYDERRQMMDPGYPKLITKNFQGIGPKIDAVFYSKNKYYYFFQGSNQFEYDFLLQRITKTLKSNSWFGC
MMP-3, sequence (P08254 100-477): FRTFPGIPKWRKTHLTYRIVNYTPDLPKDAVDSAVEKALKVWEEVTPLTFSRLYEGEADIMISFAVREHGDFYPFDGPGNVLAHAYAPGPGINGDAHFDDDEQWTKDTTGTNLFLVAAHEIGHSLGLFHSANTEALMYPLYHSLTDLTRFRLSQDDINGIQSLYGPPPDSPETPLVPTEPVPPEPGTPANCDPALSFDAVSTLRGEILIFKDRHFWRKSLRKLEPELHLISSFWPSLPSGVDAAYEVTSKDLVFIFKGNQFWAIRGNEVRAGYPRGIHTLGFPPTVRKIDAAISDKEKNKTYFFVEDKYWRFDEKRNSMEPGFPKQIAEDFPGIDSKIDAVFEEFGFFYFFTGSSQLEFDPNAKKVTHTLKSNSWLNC
T2 sequence (P14780 94-707): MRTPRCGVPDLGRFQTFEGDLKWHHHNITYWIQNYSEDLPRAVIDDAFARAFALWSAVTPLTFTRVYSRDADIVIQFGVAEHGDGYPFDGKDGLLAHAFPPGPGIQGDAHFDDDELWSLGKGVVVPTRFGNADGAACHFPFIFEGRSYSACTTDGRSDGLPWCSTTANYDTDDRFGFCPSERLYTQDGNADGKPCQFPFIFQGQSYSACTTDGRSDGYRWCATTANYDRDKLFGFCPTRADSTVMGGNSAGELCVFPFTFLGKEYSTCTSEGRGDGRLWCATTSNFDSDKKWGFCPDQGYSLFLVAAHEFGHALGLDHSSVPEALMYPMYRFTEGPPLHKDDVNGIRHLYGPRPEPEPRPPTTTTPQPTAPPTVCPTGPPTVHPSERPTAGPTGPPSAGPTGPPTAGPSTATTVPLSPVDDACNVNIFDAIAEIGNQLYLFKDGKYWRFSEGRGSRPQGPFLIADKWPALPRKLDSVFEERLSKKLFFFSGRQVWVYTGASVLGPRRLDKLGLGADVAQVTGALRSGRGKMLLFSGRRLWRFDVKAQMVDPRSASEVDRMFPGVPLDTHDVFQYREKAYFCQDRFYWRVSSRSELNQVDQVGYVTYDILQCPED
TACE, sequence (P78536 215-824): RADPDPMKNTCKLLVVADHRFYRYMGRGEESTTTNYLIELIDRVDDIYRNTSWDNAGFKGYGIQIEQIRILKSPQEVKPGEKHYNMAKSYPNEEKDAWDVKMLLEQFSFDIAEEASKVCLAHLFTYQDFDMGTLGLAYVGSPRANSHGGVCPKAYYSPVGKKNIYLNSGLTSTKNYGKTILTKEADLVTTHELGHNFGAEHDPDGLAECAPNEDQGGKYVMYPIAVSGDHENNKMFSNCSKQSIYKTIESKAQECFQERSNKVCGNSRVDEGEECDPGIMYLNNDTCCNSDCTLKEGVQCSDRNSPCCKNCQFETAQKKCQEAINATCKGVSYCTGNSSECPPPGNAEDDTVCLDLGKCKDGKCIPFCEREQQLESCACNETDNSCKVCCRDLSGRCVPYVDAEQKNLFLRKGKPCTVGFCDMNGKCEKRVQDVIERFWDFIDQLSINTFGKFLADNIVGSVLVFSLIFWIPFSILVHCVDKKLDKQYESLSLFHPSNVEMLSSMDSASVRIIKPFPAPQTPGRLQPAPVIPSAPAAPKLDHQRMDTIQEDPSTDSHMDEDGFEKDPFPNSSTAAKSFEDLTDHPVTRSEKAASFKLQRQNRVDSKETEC
MMP-8, sequence (P22894 101-467): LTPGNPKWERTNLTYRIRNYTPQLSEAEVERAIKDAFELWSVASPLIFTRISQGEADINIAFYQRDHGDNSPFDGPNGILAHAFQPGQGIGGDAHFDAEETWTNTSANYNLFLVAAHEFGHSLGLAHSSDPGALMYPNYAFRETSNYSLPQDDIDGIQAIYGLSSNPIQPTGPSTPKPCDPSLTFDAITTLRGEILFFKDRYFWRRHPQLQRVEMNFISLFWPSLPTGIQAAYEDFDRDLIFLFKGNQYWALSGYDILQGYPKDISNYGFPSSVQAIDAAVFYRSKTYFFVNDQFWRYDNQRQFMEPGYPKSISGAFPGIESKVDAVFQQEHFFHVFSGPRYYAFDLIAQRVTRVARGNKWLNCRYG

Row | SMILES | IC50 (MMP-9 [2]) [µM] | IC50 (MMP-1 [3]) [µM] | IC50 (MMP-2 [4]) [µM] | IC50 (MMP-3) [nM] | IC50 (MMP-12; [10]) [nM] | IC50 (MMP-12; [11]) [nM] | IC50 (MMP-13 [8]; [12]) [nM] | IC50 Ratio (±) [9] | other results
1 | CC1(C)NC(=O)N(C[C@@H](COc2ccc(-c3ccc(OC(F)(F)F)cc3)cc2)N(O)C=O)C1=O |  |  |  |  |  |  |  |  | Selectivity for MMP-2 versus MMP-1 (MMP-2 [1]): highly selective
2 | COc1ccc(CC#Cc2ccc3ncn(Cc4ccc(C(=O)O)cc4)c(=O)c3c2)cc1 [Example 1, 4-{6-[3-(4-Methoxy-phenyl)-prop-1-ynyl]-4-oxo-4H-quinazolin-3-ylmethyl}-benzoic acid] | > 30 | > 100 | > 100 | 220 | > 30000 |  |  |  | IC50 (MMP-14): > 100 µM
3 | O=C(NCCCCN1CCOCC1)c1cc2ccccc2o1 [CL-82198] |  |  |  |  |  |  |  |  | Inhibition of MMP-13 (MMP-13 [5]): weak inhibition; Activity against MMP-1 (MMP-1 [6]): complete lack of activity; Activity against TACE (TACE): complete lack of activity; Activity against MMP-9 (MMP-9 [7]): complete lack of activity
4 | O=C(O)C[C@@H](NC(=O)c1cc(-c2ccc(-c3ccncc3)cc2)cs1)c1ccccc1 [Example 6, (2?)-3-({[4-1(pyridin-4-yl)phényl]-thièn-2-yl]carboxamido)(phényl)propanoic acid hydrochloride] | > 1.4 | > 101 | > 0.39 | > 1700 | 14 | 4 |  |  | IC50 (MMP-8): > 980 nM; IC50 (MMP-13 [8]): 270 nM
5 | COc1ccc(CC#Cc2ccc3c(c2)c(=O)n(Cc2ccc(C(=O)O)cc2)c(=O)n3C)cc1 [Example 2, 4-{6-[3-(4-Methoxy-phenyl)-prop-1-ynyl]-1-methyl-2,4-dioxo-1,4-dihydro-2H-quinazolin-3-ylmethyl}-benzoic acid] | > 30 | > 100 | > 100 | 830 | > 100000 |  | 0.18 |  | IC50 (MMP-14): > 100 µM
6 | O=C(NC(=S)NCc1cc(-c2ccccc2)no1)c1ccccc1 [Entry 10] |  |  |  |  |  |  |  | 0.08 | IC50 ([9]; 0 mM AcNHOH, read-out: Without AcNHOH IC50): 2300 nM; IC50 ([9]; 15 mM AcNHOH (1 Kd), read-out: With AcNHOH IC50): 200 nM
7 | CN1c2ccc(C3CN(Cc4ccccc4)C(=O)CO3)cc2CS1(=O)=O (stereo not shown) [Example 7, 4-Benzyl-6-(1-methyl-2,2-dioxo-2,3-dihydro-1H-2λ^6-benzo[c]isothiazol-5-yl)morpholin-3-one] |  |  |  |  | 17000 | 270 | 3600 |  | 
8 | O=C(NC[C@H]1CC[C@H](C(=O)O)CC1)c1cc(-c2ccc(-c3ccncc3)cc2)ns1 [Example 8, Trans 3-[4-(4-pyridyl)phenyl]-5-isothiazole carboxamido methyl-cyclohexane carboxylic acid, Potassium Salt] |  |  |  |  | 570 | 15 | 1900 |  | 
9 | COc1ccc(NC(=O)Nc2ccc3nc(C)cc(N)c3c2)cc1 [Entry 3] |  |  |  |  |  |  |  | 0.56 | 
10 | CCOC(=O)/C=C/c1ccc(-n2ccnc2)cc1 [Entry 6] |  |  |  |  |  |  |  | 0.82 | 
